The record followed here is ChEMBL document CHEMBL1135099, “Synthesis and antinephritic activities of quinoline-3-carboxamides and related compounds” (2002).

Calls of active or inactive are those of the source. The rule behind the calls is not given here.

Assay [1] relates to Mus musculus. The assay can be described thus: Percent inhibition of proteinuria in mice, perorally dose of 32 mg/kg. Type of assay: functional. As to conditions: route oral.
Assay [2] has as its system Mus musculus. The assay can be described thus: Percent inhibition of proteinuria by compound dose of 100 mg/kg given perorally to murine in chronic graft-versus-host-disease test. Format: functional. As to conditions: route oral.
Assay [3] concerns Mus musculus. The assay can be described thus: Percent inhibition of anti-DNA antibody was evaluated by ELISA technique as a measure of auto-immune disease after injection of compound dose of 0.1 mg/kg in murine. Format: functional.
Assay [4] relates to Mus musculus. Kind of assay: Percent inhibition of proteinuria by compound dose of 10 mg/kg given perorally to murine in chronic graft-versus-host-disease test. Type of assay: functional. The conditions noted are these: route oral.
The subject of assay [5] is Mus musculus. Kind of assay: Percent inhibition of anti-DNA antibody was evaluated by ELISA technique as a measure of auto-immune disease after injection of compound dose of 10 mg/kg in murine. Format: functional.
Assay [6] deals with Mus musculus. Kind of assay: Percent inhibition of proteinuria by compound dose of 0.1 mg/kg given perorally to murine in chronic graft-versus-host-disease test. Type of assay: functional. The conditions noted are these: route oral.
The test system of assay [7] is Mus musculus. The assay can be described thus: Percent inhibition of anti-DNA antibody was evaluated by ELISA technique as a measure of auto-immune disease after injection of compound dose of 1 mg/kg in murine. Type of assay: functional.
In assay [8] the test system is Mus musculus. Kind of assay: Percent inhibition of proteinuria by compound dose of 1 mg/kg given perorally to murine in chronic graft-versus-host-disease test. Type of assay: functional. The conditions noted are these: route oral.
Assay [9] deals with Mus musculus. Kind of assay: Percent inhibition of proteinuria by compound dose of 0.1 mg/kg given perorally to MRL/1 mice. Type of assay: functional. As to conditions: route oral.
Assay [10] concerns Mus musculus. Kind of assay: Percent inhibition of proteinuria by compound dose of 3.2 mg/kg given perorally to MRL/1 mice. Format: functional. As to conditions: route oral.
The subject of assay [11] is Mus musculus. Kind of assay: Percent inhibition of proteinuria by compound dose of 10 mg/kg given perorally to MRL/1 mice. Format: functional. The conditions noted are these: route oral.
For assay [12], the system named is Mus musculus. The assay can be described thus: Percent inhibition of proteinuria by compound dose of 0.32 mg/kg given perorally to MRL/1 mice. Format: functional. The conditions noted are these: route oral.
The subject of assay [13] is Mus musculus. The assay can be described thus: Percent inhibition of anti-DNA antibody was evaluated by ELISA technique as a measure of auto-immune disease after injection of compound dose of 0.1 mg/kg in MRL/1 mice. Format: functional.
Assay [14] relates to Mus musculus. The assay can be described thus: Percent inhibition of proteinuria by compound dose of 1 mg/kg given perorally to MRL/1 mice. Format: functional. As to conditions: route oral.
The subject of assay [15] is Mus musculus. Kind of assay: Percent inhibition of anti-DNA antibody was evaluated by ELISA technique as a measure of auto-immune disease after injection of compound dose of 1 mg/kg in MRL/1 mice. Type of assay: functional.
The test system of assay [16] is Mus musculus. Kind of assay: Percent inhibition of anti-DNA antibody was evaluated by ELISA technique as a measure of auto-immune disease after injection of compound dose of 3.2 mg/kg in MRL/1 mice. Format: functional.
For assay [17], the system named is Mus musculus. The assay can be described thus: Percent inhibition of anti-DNA antibody was evaluated by ELISA technique as a measure of auto-immune disease after injection of compound dose of 100 mg/kg in murine. Type of assay: functional.
Assay [18] deals with Mus musculus. Kind of assay: Percent inhibition of anti-DNA antibody was evaluated by ELISA technique as a measure of auto-immune disease after injection of compound dose of 10 mg/kg in MRL/1 mice. Type of assay: functional.
For assay [19], the system named is Mus musculus. Kind of assay: Percent inhibition of anti-DNA antibody was evaluated by ELISA technique as a measure of auto-immune disease after injection of compound dose of 0.32 mg/kg in MRL/1 mice. Type of assay: functional.
In assay [20] the test system is Mus musculus. The assay can be described thus: Percent inhibition of anti-DNA antibody was evaluated by ELISA technique as a measure of auto-immune disease after injection of compound dose of 100 mg/kg in MRL/1 mice. Type of assay: functional.
In assay [21] the test system is Mus musculus. Kind of assay: Percent inhibition of proteinuria by compound dose of 1 mg/kg given perorally to MRL/1 mice; Inactive. Set-up: dose 1 mg/kg. Format: functional, organism-based.
The test system of assay [22] is Mus musculus. The assay can be described thus: Percent inhibition of anti-DNA antibody was evaluated by ELISA technique as a measure of auto-immune disease after injection of compound dose of 32 mg/kg in MRL/1 mice. Type of assay: functional.
For assay [23], the system named is Mus musculus. The assay can be described thus: Percent inhibition of proteinuria by compound dose of 100 mg/kg given perorally to MRL/1 mice. Type of assay: functional. The conditions noted are these: route oral.
Assay [24] has as its system Mus musculus. Kind of assay: Percent inhibition of proteinuria by compound dose of 3.2 mg/kg given perorally to MRL/1 mice; Inactive. Type of assay: functional, organism-based. Set-up: dose 3.2 mg/kg.
Assay [25] has as its system Mus musculus. Kind of assay: Percent inhibition of proteinuria by compound dose of 32 mg/kg given perorally to MRL/1 mice. Format: functional. As to conditions: route oral.
The subject of assay [26] is Mus musculus. The assay can be described thus: Percent inhibition of anti-DNA antibody was evaluated by ELISA technique as a measure of auto-immune disease after injection of compound dose of 32 mg/kg in murine. Format: functional.

For `CSc1ccc2c(c1)c(O)c(C(=O)N(C)c1ccccn1)c(=O)n2C`, the inhibition in vivo at 32 mg/kg in the assay with Mus musculus [1] was 65%.
On the same count and under the same terms, for `CSc1ccc2c(c1)c(S)c(C(=O)N(C)c1ccccc1)c(=O)n2C` the value was 19%.
Regarding `CSc1ccc2c(c1)c(O)c(C(=O)n1ccc3ccccc31)c(=O)n2C`, the inhibition in vivo at 100 mg/kg in the assay with Mus musculus [2] came out at 48%.
As to `CNc1c(C(=O)N(C)c2ccccc2)c(=O)n(C)c2ccc(SC)cc12`, the inhibition in vivo at 32 mg/kg in the assay on Mus musculus [1] came to 83%.
As to `C[C@]12C=CC(=O)C=C1CCC1[C@@H]2[C@@H](O)C[C@@]2(C)[C@H]1CC[C@]2(O)C(=O)CO` (single isomer, unassigned) [PREDNISOLONE], the inhibition in vivo at 0.1 mg/kg with Mus musculus [3] turned out to be 39%; with Mus musculus [6] it was 53%. Besides, the inhibition in vivo at 10 mg/kg came out at 100% in the assay on Mus musculus [4] and 52% with Mus musculus [5]. The inhibition in vivo at 1 mg/kg in the assay with Mus musculus [7] worked out at 39%; in the assay on Mus musculus [8], 75%.
As to `CSc1ccc2c(c1)c(O)c(C(=O)Nc1ccccc1)c(=O)n2C`, the inhibition in vivo at 32 mg/kg in the assay on Mus musculus [1] was found to be 24%.
Same read-out and setting: for `CSc1ccc2nc(O)c(C(=O)N(C)c3ccccc3)c(O)c2c1` the value was 88%.
The same measure, in the same setting: for `COCn1c(=O)c(C(=O)N(C)c2ccccc2)c(O)c2cc(SC)ccc21` the value was 78%.
Same read-out and setting: for `COc1ccc(N(C)C(=O)c2c(O)c3cc(SC)ccc3n(C)c2=O)cc1` the value was 100%.
For the molecule `CSc1ccc2c(c1)c(O)c(C(=O)N(C)c1ccccc1)c(=O)n2C`, the inhibition in vivo at 0.1 mg/kg was 100% with Mus musculus [9], 41% in the assay on Mus musculus [3], 49% in the assay with Mus musculus [13] and 66% with Mus musculus [6]. Further, the inhibition in vivo at 3.2 mg/kg in the assay on Mus musculus [10] turned out to be 100%; in the assay on Mus musculus [16], 88%. The inhibition in vivo at 10 mg/kg in the assay on Mus musculus [11] was 100%; with Mus musculus [4], 100%; in the assay with Mus musculus [5] it was 88%; with Mus musculus [18], 93%. For the same molecule, the inhibition in vivo at 0.32 mg/kg in the assay with Mus musculus [12] amounted to 100%; in the assay on Mus musculus [19], 69%. Moreover, the inhibition in vivo at 100 mg/kg in the assay with Mus musculus [2] was 100%; with Mus musculus [17] it was 94%. Besides, the inhibition in vivo at 1 mg/kg in the assay with Mus musculus [14] amounted to 100%; with Mus musculus [15], 76%; with Mus musculus [7], 50%; with Mus musculus [8], 82%. The inhibition in vivo at 32 mg/kg in the assay on Mus musculus [1] came out at 100%.
For the molecule `CSc1ccc2c(c1)c(O)c(C(=O)c1ccccc1)c(=O)n2C`, the inhibition in vivo at 100 mg/kg in the assay with Mus musculus [2] worked out at 42%.
With `CN(C(=O)c1c(O)c2cc([S+](C)[O-])ccc2n(C)c1=O)c1ccccc1` (stereo not drawn), the inhibition in vivo at 32 mg/kg in the assay on Mus musculus [1] was found to be 100%.
Same read-out and setting: for `CCn1c(=O)c(C(=O)N(C)c2ccccc2)c(O)c2cc(SC)ccc21` the value was 83%.
On the same count and under the same terms, for `CSc1ccc2c(c1)c(O)c(S(=O)(=O)N(C)c1ccccc1)c(=O)n2C` the value was 53%.
`CCN(C(=O)c1c(O)c2cc(SC)ccc2n(C)c1=O)c1ccccc1`: the inhibition in vivo at 32 mg/kg with Mus musculus [1] amounted to 89%.
As to `CN(C(=O)c1c(O)c2cc(Sc3ccccc3)ccc2n(C)c1=O)c1ccccc1`, in the assay on Mus musculus [1], the inhibition in vivo at 32 mg/kg is 100%.
As to `CSc1ccc2c(c1)c(O)c(C(=O)N(C)C1CCCCC1)c(=O)n2C`, the inhibition in vivo at 32 mg/kg in the assay with Mus musculus [1] is 43%.
Turning to `CSc1ccc2c(c1)c(Cl)c(C(=O)N(C)c1ccccc1)c(=O)n2C`, the inhibition in vivo at 32 mg/kg in the assay on Mus musculus [1] was -1%.
As to `CSc1ccc2c(c1)c(O)c(C(=O)C1(c3ccccc3)CC1)c(=O)n2C`, in the assay with Mus musculus [2], the inhibition in vivo at 100 mg/kg is 29%.
In the case of `CSc1ccc2c(c1)c(N)c(C(=O)N(C)c1ccccc1)c(=O)n2C`, the inhibition in vivo at 32 mg/kg with Mus musculus [1] was 22%.
`CCSc1ccc2c(c1)c(O)c(C(=O)N(C)c1ccccc1)c(=O)n2C`: the inhibition in vivo at 32 mg/kg with Mus musculus [1] came to 100%.
On the same count and under the same terms, for `CSc1ccc2c(c1)c(O)c(C(=O)N(C)c1ccccc1)c(=O)n2Cc1ccccc1` the value was -66%.
On to `CSc1ccc2c(c1)c(O)c(C(=O)N(C)c1cccc(C(F)(F)F)c1)c(=O)n2C`, for which, in the assay on Mus musculus [1], the inhibition in vivo at 32 mg/kg was found to be 99%.
On the same count and under the same terms, for `CN(C(=O)c1c(O)c2cc(S(C)(=O)=O)ccc2n(C)c1=O)c1ccccc1` the value was 0%.
Consider `CN(C(=O)c1c(O)c2ccccc2n(C)c1=O)c1ccccc1` [ROQUINIMEX], for which the inhibition in vivo at 100 mg/kg in the assay with Mus musculus [20] turned out to be 76%; with Mus musculus [2], 98%; with Mus musculus [23], 100%; in the assay on Mus musculus [17] it was 37%. Moreover, the inhibition in vivo at 10 mg/kg in the assay with Mus musculus [11] is 60%; in the assay on Mus musculus [4], 9%; in the assay with Mus musculus [5] it was -19%; with Mus musculus [18], 51%. The inhibition entry with Mus musculus [21] and in the assay with Mus musculus [24] was “inactive” in each case. Besides, the inhibition in vivo at 32 mg/kg in the assay with Mus musculus [22] was determined as 52%; with Mus musculus [25], 100%; in the assay with Mus musculus [1] it was 86%; in the assay on Mus musculus [26], 36%. The inhibition in vivo at 1 mg/kg in the assay on Mus musculus [15] was determined as 24%. Besides, the inhibition in vivo at 3.2 mg/kg in the assay with Mus musculus [16] is 35%.
In the case of `CSc1ccc2c(c1)c(O)c(C(=O)N(C)c1ccc(F)cc1)c(=O)n2C`, the inhibition in vivo at 32 mg/kg with Mus musculus [1] was 100%.
Consider `COc1c(C(=O)N(C)c2ccccc2)c(=O)n(C)c2ccc(SC)cc12`, for which the inhibition in vivo at 32 mg/kg in the assay on Mus musculus [1] is 94%.
Turning to `CN(C(=O)c1c(O)c2cc(Oc3ccccc3)ccc2n(C)c1=O)c1ccccc1`, the inhibition in vivo at 32 mg/kg in the assay on Mus musculus [1] worked out at 26%.
For the molecule `CSc1ccc2c(c1)c(O)c(S(=O)(=O)Cc1ccccc1)c(=O)n2C`, the inhibition in vivo at 100 mg/kg in the assay on Mus musculus [2] was -49%.
Turning to `CSc1ccc2c(c1)c(O)c(C(=O)N(C)c1ccc(C)cc1)c(=O)n2C`, the inhibition in vivo at 32 mg/kg with Mus musculus [1] is 100%.
